Test results taken from US7291469B2, “Mutant met and uses therefor” (The Regents of the University of California, priority 2004, dated 2007).

What was measured:
Met gene expression = Met gene expression by semi-quantitative RT-PCR under hypoxia mimic; format: cell-based; conditions: two canine OSA cell lines
Description: To evaluate the effects of hypoxia on Met gene expression, we cultured two different canine OSA cell lines in the presence of cobalt chloride, an agent that mimics hypoxia. […] Given the substantial data indicating a role of Met in a variety of human cancers, it is likely that dysregulation of Met will play a similar role in canine cancers.

canine OSA cells = assay: Scattering and migration of canine OSA cells under growth factor deprivation with HGF; format: cell-based; conditions: medium without fetal bovine serum, HGF added
Description: To evaluate the ability of OSA cells to scatter and migrate, we cultured cells in medium containing fetal bovine serum or no fetal bovine serum (stressful condition), then stimulated with HGF. The OSA cells began to show evidence of morphology change (scattering) upon growth factor deprivation.

canine Met = assay: Met phosphorylation in canine tumor cell lines after rhHGF stimulation; format: cell-based
Chain of canine Met (Q75ZY9 25-308 limits assumed): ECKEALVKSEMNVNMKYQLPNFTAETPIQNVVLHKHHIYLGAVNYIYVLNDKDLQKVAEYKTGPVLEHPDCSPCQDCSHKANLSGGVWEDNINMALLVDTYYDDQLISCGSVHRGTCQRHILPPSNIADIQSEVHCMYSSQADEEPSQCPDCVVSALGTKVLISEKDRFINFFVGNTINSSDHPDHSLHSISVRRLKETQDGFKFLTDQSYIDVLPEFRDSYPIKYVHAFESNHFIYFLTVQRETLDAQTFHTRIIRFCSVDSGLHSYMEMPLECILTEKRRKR
Chain of canine Met (Q75ZY9 309-516 limits assumed): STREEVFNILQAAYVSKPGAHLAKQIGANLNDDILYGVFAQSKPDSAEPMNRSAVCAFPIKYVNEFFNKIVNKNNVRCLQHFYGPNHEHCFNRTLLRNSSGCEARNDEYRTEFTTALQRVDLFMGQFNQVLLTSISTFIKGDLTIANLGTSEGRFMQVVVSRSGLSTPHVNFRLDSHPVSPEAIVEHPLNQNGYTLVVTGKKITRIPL
Experimental: It is possible that this mutation results in the basal phosphorylation of Met in this cell line.
To determine whether HGF stimulation of canine Met induces appropriate Met autophosphorylation and downstream signal transduction, Met expressing tumor cell lines were treated with recombinant human HGF and the phosphorylation of Met on several specific tyrosines as well as phosphorylation of downstream signaling components were evaluated. […] It was then necessary to determine whether all critical tyrosine residues were phosphorylated after rhHGF exposure, as it was possible that the recombinant human protein was only inducing partial or incomplete signal transduction. […] Although this could be attributed to autocrine HGF and HGFA production, the D17 cell line also has the D544N mutation.

Gab-1, Erk1/2, and Akt = assay: Phosphorylation of downstream signal transduction components Gab-1, Erk1/2 and Akt after rhHGF stimulation; format: cell-based, canine
Description: The activation of downstream signal transduction components Gab-1, Erk1/2, and Akt were then examined. […] It is possible that in these cases, other growth factor pathways contribute to this high level of basal phosphorylation.

[1] = tested on: NIH-3T3 cells stably transfected with canine Met constructs; assay: Gap migration assay in NIH-3T3 cells stably transfected with canine Met constructs; format: cell-based; conditions: R988C, M1251T, D544N, G966S Met lines; 50 ng/ml; 24 hours
Experimental: Cells were allowed to grow to confluence in tissue culture, then defects were created manually to create a “gap” in the cells. The cells were then left in medium alone or treated with recombinant human HGF (rhHGF) at 50 ng/ml. Cells were also treated with a Met inhibitor in the absence or presence of rhHGF. Cultures were evaluated 24 hours later by staining the cells with crystal violet and digital imaging.

[Cl][Co][Cl] [cobalt chloride]
Met gene expression (Met gene expression): upregulation of Met gene expression

rhHGF: recombinant human hepatocyte growth factor, the ligand for Met
morphology change (scattering) (canine OSA cells): further enhanced | phosphorylation of Met tyrosines 1003, 1230/34/35, 1349 and 1365 (canine Met; OSA8 canine OSA cell line): all phosphorylated appropriately | concentration of maximal stimulation of Met phosphorylation (canine Met; canine OSA cell lines): 50 ng/mL | phosphorylation of canine Met (canine Met; canine OSA cell lines): induced phosphorylation of canine Met in all cell lines tested in a dose dependent fashion | Erk and Akt phosphorylation (Gab-1, Erk1/2, and Akt; Mel 3 and Mel 8 cell lines): inducible Erk and Akt phosphorylation | Gab-1 phosphorylation (Gab-1, Erk1/2, and Akt; each of the canine cell lines tested): Gab-1 was phosphorylated | migration compared to NIH-3T3 expressing wild-type Met [1]: markedly increased
